Columns and labels:
Experiment in all cases: relative viability (nuclei count vs DMSO), 5 days (fraction); higher = more cells survive
[1] = compound: O[C@@H](COc1cccc2ncccc12)CN1CCN([C@@H]2c3ccccc3[C@@H]3[C@H](c4ccccc42)C3(F)F)CC1 [Zosuquidar] + Nc1ncn([C@H]2C[C@H](O)[C@@H](CO)O2)c(=O)n1 [Decitabine] (partner 2 µM)
Summary of the method: (§1)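 Relative viability was taken as the ratio of nuclei in treated wells to nuclei in vehicle wells. Lung cancer cell lines in 1536-well plates received compounds by pin tool one day after seeding, either one drug alone or a fixed anchor-drug dose plus five library-drug doses (not always all listed) in √10 steps. Nuclei were counted on 4× images after 5 days of treatment, and values are medians of duplicate plates.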

[2] = compound: C1=CC(=CC=C1NC(=S)NNC2=C(C=C(C=C2[N+](=O)[O-])C(F)(F)F)[N+](=O)[O-])F [Kobe2602] + CS(=O)(=O)CCNCc1ccc(-c2ccc3ncnc(Nc4ccc(OCc5cccc(F)c5)c(Cl)c4)c3c2)o1 [Lapatinib] (partner 2 µM)
Summary of the method: as §1

[3] = compound: C1=CC(=CC=C1NC(=S)NNC2=C(C=C(C=C2[N+](=O)[O-])C(F)(F)F)[N+](=O)[O-])F [Kobe2602] + CS(=O)(=O)N1CCN(Cc2cc3nc(-c4cccc5[nH]ncc45)nc(N4CCOCC4)c3s2)CC1 [Pictilisib] (partner 1 µM)
Summary of the method: as §1

[4] = compound: O[C@@H](COc1cccc2ncccc12)CN1CCN([C@@H]2c3ccccc3[C@@H]3[C@H](c4ccccc42)C3(F)F)CC1 [Zosuquidar] + CS(=O)(=O)N1CCN(Cc2cc3nc(-c4cccc5[nH]ncc45)nc(N4CCOCC4)c3s2)CC1 [Pictilisib] (partner 1 µM)
Summary of the method: as §1

Cell Line	relative viability ([1]; first compound 0.01 µM)	relative viability ([1]; first compound 0.03162 µM)	relative viability ([1]; first compound 0.1 µM)	relative viability ([1]; first compound 0.3162 µM)	relative viability ([1]; first compound 1 µM)	relative viability ([2]; first compound 0.2 µM)	relative viability ([2]; first compound 0.6325 µM)	relative viability ([2]; first compound 2 µM)	relative viability ([2]; first compound 6.325 µM)	relative viability ([2]; first compound 20 µM)	relative viability ([3]; first compound 0.2 µM)	relative viability ([3]; first compound 0.6325 µM)	relative viability ([3]; first compound 2 µM)	relative viability ([3]; first compound 6.325 µM)	relative viability ([3]; first compound 20 µM)	relative viability ([4]; first compound 0.01 µM)	relative viability ([4]; first compound 0.03162 µM)	relative viability ([4]; first compound 0.1 µM)	relative viability ([4]; first compound 0.3162 µM)	relative viability ([4]; first compound 1 µM)
NCI-H1651	0.644	0.685	0.483	0.617	0.588	0.871	0.981	0.836	0.775	0.764	0.691	0.69	0.636	0.537	0.537	0.589	0.661	0.559	0.668	0.615
NCI-H1666	0.766	0.788	0.671	0.789	0.678	0.639	0.659		0.468	0.592	0.345	0.5		0.276	0.471	0.458	0.491	0.52	0.517	0.274
NCI-H1734	0.522	0.537	0.525	0.456	0.565	1.06	1.11	1.14	1.26	1.03	0.439	0.475	0.464	0.454	0.533	0.388	0.484	0.399	0.471	0.478
NCI-H1755	0.672	0.663	0.716	0.728	0.708	1.01	1.03	0.951	1.02	1.09	0.445	0.476	0.421	0.439	0.435	0.415	0.452	0.318	0.497	0.484
NCI-H1792	0.545	0.532	0.603	0.584	0.556	0.963	0.878	0.992	0.928	0.978	0.24	0.337	0.389	0.252	0.303	0.355	0.267	0.243	0.311	0.335
NCI-H1793	0.536			0.648	0.488	1.03	0.663	0.621	0.623	0.78	0.387	0.381	0.32	0.346	0.339	0.483	0.383		0.357	0.297
NCI-H1915	0.278	0.252	0.279	0.288	0.269	0.998	1.04	0.969	1.02	1.03	0.959	0.993	0.994	0.989	1.02	0.9	0.919	0.903	1.02	0.967
NCI-H1944	0.365	0.454	0.469	0.453	0.439	0.878	0.944	0.837	0.857	0.787	0.344	0.381	0.353	0.349	0.374	0.342	0.337	0.312	0.363	0.349
NCI-H1975	0.4	0.402	0.423	0.411	0.547	0.886	0.956	0.767	0.756	0.852	0.279	0.276	0.277	0.256	0.299	0.289	0.269	0.292	0.332	0.288
NCI-H1993	0.609	0.615		0.583	0.546	0.718	0.727	0.783	0.814	0.875	0.649	0.807	0.861	0.893	0.785	0.766	0.913	0.804	0.875	0.644
NCI-H2009	0.348	0.338	0.376	0.327	0.344	0.878	1.14	0.895	1.04	0.871	0.843	0.877	0.874	0.876	0.897	0.837	0.88	0.677	1.02	0.822
NCI-H2023	0.195	0.281	0.235	0.246	0.268	0.833	0.914	0.811	0.815	0.739	0.259	0.269	0.223	0.215	0.228	0.235	0.235	0.171	0.324	0.271
NCI-H2085	0.556	0.586		0.653	0.55	0.749	0.751	0.779	0.776	0.879	0.484	0.448	0.483	0.466	0.489	0.446	0.543	0.441	0.474	0.478
NCI-H2087	0.262	0.3	0.305	0.206	0.33	0.879	1.01	1.26	0.957	1.04	0.86	0.832	0.78	0.841	0.95	0.894	0.844	0.791	1	0.853
NCI-H2126	0.571	0.592	0.624	0.627	0.538	0.751	0.775	0.778	0.725	0.759	0.508	0.508	0.485	0.475	0.492	0.479	0.505	0.404	0.494	0.539
NCI-H2170	0.451	0.476	0.482	0.466	0.512	0.282	0.261	0.262	0.272	0.303	0.325	0.327	0.329	0.324	0.344	0.295	0.266	0.312	0.345	0.281

— the supplement of paper PMC10307832
